From ChEMBL document CHEMBL1159173, “Investigation of side-chain sar, formulation and injection site toleration of pyrazolo[3,4-f]quinoline derivatives: a potent series of in vivo active immunostimulants” (Bioorg Med Chem Lett, 1993)

Legend:
Mus musculus [1] = species: Mus musculus; test: Minimum effective dose for immunostimulant activity in mice was determined; type: functional; conditions: read-out: MED
Mus musculus [2] = species: Mus musculus; test: Minimum effective dose for immunostimulant activity in mice was determined; Toxic; type: functional, organism-based
[3] = Solubility was determined; type: physicochemical

COc1ccc(Nc2cc(C)nc3ccc4c[nH]nc4c23)cc1
minimal effective dose (Mus musculus [1]): 16.7 mg/kg

Cc1cc(Nc2cccnc2)c2c(ccc3c[nH]nc32)n1
minimal effective dose (Mus musculus [1]): > 50 mg/kg

c1cc(NC2CCCCC2)c2c(ccc3c[nH]nc32)n1
MED (Mus musculus [2]): Toxic
solubility [3]: ≥ 25000 µg/mL

Cc1ccc(Nc2cc(C)nc3ccc4c[nH]nc4c23)cc1
solubility [3]: < 6000 µg/mL
minimal effective dose (Mus musculus [1]): 6.25 mg/kg

CCCCOc1ccc(Nc2ccnc3ccc4c[nH]nc4c23)cc1
solubility [3]: > 6000 µg/mL
minimal effective dose (Mus musculus [1]): 3.13 mg/kg

CCc1ccc(Nc2cc(C)nc3ccc4c[nH]nc4c23)cc1
solubility [3]: > 6000 µg/mL
minimal effective dose (Mus musculus [1]): 12.5 mg/kg

Cc1cc(Nc2ccc(O)cc2)c2c(ccc3c[nH]nc32)n1
minimal effective dose (Mus musculus [1]): 16.7 mg/kg

Cc1cc(Nc2ccc(SCC(=O)O)cc2)c2c(ccc3c[nH]nc32)n1
minimal effective dose (Mus musculus [1]): > 50 mg/kg

c1cc(Nc2ccc(OCC3CCCCC3)cc2)c2c(ccc3c[nH]nc32)n1
solubility [3]: < 6000 µg/mL
minimal effective dose (Mus musculus [1]): 0.62 mg/kg

Clc1ccc(Nc2ccnc3ccc4c[nH]nc4c23)cc1
solubility [3]: < 6000 µg/mL
minimal effective dose (Mus musculus [1]): 12.5 mg/kg

CCCCc1ccc(Nc2ccnc3ccc4c[nH]nc4c23)cc1
solubility [3]: > 6000 µg/mL
minimal effective dose (Mus musculus [1]): 6.25 mg/kg

Cc1cc(Nc2ccc(OCC3CCCCC3)cc2)c2c(ccc3c[nH]nc32)n1
solubility [3]: < 6000 µg/mL
minimal effective dose (Mus musculus [1]): 0.62 mg/kg

CCCc1ccc(Nc2cc(C)nc3ccc4c[nH]nc4c23)cc1
solubility [3]: > 6000 µg/mL
minimal effective dose (Mus musculus [1]): 6.25 mg/kg

Cc1cc(Nc2ccc(Cl)cc2)c2c(ccc3c[nH]nc32)n1
solubility [3]: < 6000 µg/mL
minimal effective dose (Mus musculus [1]): 1.85 mg/kg

CCCCOc1ccc(Nc2cc(C)nc3ccc4c[nH]nc4c23)cc1
solubility [3]: < 6000 µg/mL
minimal effective dose (Mus musculus [1]): 1.85 mg/kg

Cc1cc(Nc2ccc(OCc3ccccc3)cc2)c2c(ccc3c[nH]nc32)n1
solubility [3]: < 6000 µg/mL
minimal effective dose (Mus musculus [1]): 0.62 mg/kg

Cc1cc(NC2CCCCC2)c2c(ccc3c[nH]nc32)n1
solubility [3]: ≥ 25000 µg/mL
minimal effective dose (Mus musculus [1]): 1.85 mg/kg
